From patent US20220055989A1, “CONDENSED PYRROLES AS NOVEL BROMODOMAIN INHIBITORS” (ALBERT LUDWING UNIVERSITÄT FREIBURG, priority 2018, published 2022)

Key:
Type in all cases: binding
bromodomains = assay: Bromodomain profiling (BROMOscan), summary over the panel; conditions: compared to the compound of formula (23); bromodomains of Table 3
Procedure: Bromodomain profiling was carried out on the basis of BROMOscan™. This platform accounted for the indirect determination of the dissociation constants between 19 bromodomains and the compound of formula (13), by binding competition against a reference immobilized ligand.
Compounds that bind the bromodomain prevent its binding to the immobilized ligand thus reducing the amount of protein captured. […] Hits are identified by measuring the amount of bromodomain captured in test versus control samples.
Bromodomain assays for Kd determination: T7 phage strains displaying bromodomains were grown in parallel in 24-well blocks in an E. coli host derived from the BL21 strain. E. coli were grown to log-phase and infected with T7 phage from a frozen stock (multiplicity of infection=0.4) and incubated with shaking at 32° C. until lysis (90-150 minutes). The lysates were centrifuged (5,000×g) and filtered (0.2 μm) to remove cell debris. […] Kds were determined using an 11-point 3-fold compound dilution series with one DMSO control point. […] The bromodomain concentration in the eluates was measured by qPCR.
Bromodomain assays for % Ctrl determination: T7 phage strains displaying bromodomains were grown in parallel in 24-well blocks in an E. coli host derived from the BL21 strain. […] The bromodomain concentration in the eluates was measured by qPCR.

BRD2(1) = target: T1, BRD2(1) (Homo sapiens, UniProt P25440); assay: BROMOscan Kd determination BRD2(1)
T1 construct: T7 phage strains displaying bromodomains were grown in parallel; made in house; host or cells: T7 phage grown in an E. coli host derived from the BL21 strain
T1 sequence (P25440 74-180 limits assumed): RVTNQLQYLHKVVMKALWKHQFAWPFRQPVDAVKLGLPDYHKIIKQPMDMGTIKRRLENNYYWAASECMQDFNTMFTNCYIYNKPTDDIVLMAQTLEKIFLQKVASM
Procedure: (§1) Bromodomain profiling was carried out on the basis of BROMOscan™. This platform accounted for the indirect determination of the dissociation constants between 19 bromodomains and the compound of formula (13), by binding competition against a reference immobilized ligand. Compounds that bind the bromodomain prevent its binding to the immobilized ligand thus reducing the amount of protein captured. […] Hits are identified by measuring the amount of bromodomain captured in test versus control samples. Bromodomain assays for Kd determination: T7 phage strains displaying bromodomains were grown in parallel in 24-well blocks in an E. coli host derived from the BL21 strain. E. coli were grown to log-phase and infected with T7 phage from a frozen stock (multiplicity of infection=0.4) and incubated with shaking at 32° C. until lysis (90-150 minutes). The lysates were centrifuged (5,000×g) and filtered (0.2 μm) to remove cell debris. […] Kds were determined using an 11-point 3-fold compound dilution series with one DMSO control point. […] The bromodomain concentration in the eluates was measured by qPCR. […] Most Kds were determined using a compound top concentration=10,000 nM. […] Binding Constants (Kds): Binding constants (Kds) were calculated with a standard dose-response curve using the Hill equation: The Hill Slope was set to −1. […]

BRD4(2) = target: T2, BRD4(2) (Homo sapiens, UniProt O60885); assay: BROMOscan Kd determination BRD4(2)
T2 construct: T7 phage strains displaying bromodomains were grown; host or cells: T7 phage in E. coli derived from BL21
Procedure: as §1

BRDT(2) = target: T3, BRDT(2) (Homo sapiens, UniProt Q58F21); assay: BROMOscan Kd determination BRDT(2)
T3 construct: T7 phage strains displaying bromodomains were grown; host or cells: T7 phage in E. coli derived from BL21
Procedure: as §1

PBRM1(5) = target: T4, PBRM1(5) (Homo sapiens, UniProt Q86U86); assay: BROMOscan Kd determination PBRM1(5)
T4 construct: T7 phage strains displaying bromodomains were grown in parallel; host or cells: T7 phage grown in E. coli host derived from BL21
T4 sequence (Q86U86 653-763 limits assumed): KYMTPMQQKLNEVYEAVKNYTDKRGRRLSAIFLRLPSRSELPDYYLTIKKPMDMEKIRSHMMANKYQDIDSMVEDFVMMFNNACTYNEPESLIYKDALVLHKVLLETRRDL
Procedure: as §1

BRD3(1) = target: T5, BRD3(1) (Homo sapiens, UniProt Q15059); assay: BROMOscan Kd determination BRD3(1)
T5 construct: T7 phage strains displaying bromodomains were grown in parallel; made in house; host or cells: T7 phage grown in an E. coli host derived from the BL21 strain
T5 sequence (Q15059 34-140 limits assumed): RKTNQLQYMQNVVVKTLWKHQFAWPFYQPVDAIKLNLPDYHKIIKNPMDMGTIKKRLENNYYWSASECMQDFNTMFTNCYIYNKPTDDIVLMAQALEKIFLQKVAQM
Procedure: as §1

BRD2(2) = target: T6, BRD2(2) (Homo sapiens, UniProt P25440); assay: BROMOscan Kd determination BRD2(2)
T6 construct: T7 phage strains displaying bromodomains were grown in parallel; made in house; host or cells: T7 phage grown in an E. coli host derived from the BL21 strain
T6 sequence (P25440 344-453 limits assumed): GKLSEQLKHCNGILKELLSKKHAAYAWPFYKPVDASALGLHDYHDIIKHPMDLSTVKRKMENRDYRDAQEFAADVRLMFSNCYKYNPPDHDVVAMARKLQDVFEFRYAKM
Procedure: as §1

| Kd (BRD2(1)) | Kd (BRD4(2)) | Kd (BRDT(2)) | Kd (PBRM1(5)) | Kd (BRD3(1)) | Kd (BRD2(2)) | Structure (SMILES) | selectivity for certain bromodomains evaluated (bromodomains) |
| --- | --- | --- | --- | --- | --- | --- | --- |
|  |  |  |  |  |  | CCCCc1[nH]c(-c2cc(N)ccc2Cl)c2c1C(=O)CCCC2 [Compound 27, 1-(5-Amino-2-chlorophenyl)-3-butyl-5,6,7,8-tetrahydrocyclohepta[c]pyrrol-4(2H)-one] | higher selectivity for certain bromodomains |
| 130 nM | 270 nM | 620 nM | 3800 nM | 170 nM | 200 nM | Cc1[nH]c(-c2cc(N)ccc2Cl)c2c1C(=O)CCCC2 [Compound 23] |  |
| 45 nM | 220 nM | 1000 nM |  | 100 nM | 290 nM | COc1ccc(S(=O)(=O)N2CCOCC2)cc1NC(=O)c1[nH]c(C)c2c1CCCCC2=O [Compound 13, N-(2-methoxy-5-(morpholinosulfonyl)phenyl)-3-methyl-4-oxo-2,4,5,6,7,8-hexahydrocyclohepta[c]pyrrole-1-carboxamide] |  |
|  |  |  |  |  |  | CCCc1[nH]c(-c2cc(N)ccc2Cl)c2c1C(=O)CCCC2 [Compound 26, 1-(5-Amino-2-chlorophenyl)-3-propyl-5,6,7,8-tetrahydrocyclohepta[c]pyrrol-4(2H)-one] | higher selectivity for certain bromodomains |
